US20090227606A1, “Methods for Preventing or Treating Acute and Chronic Pain” (priority 2006, published 2009)
“Also recorded” adds a separate entry of the source.

Assays:
[1] = system: GLAST mRNA; assay: Real Time RT-PCR of cultured astrocytes, GLAST mRNA; type: cell-based, rat
Procedure: (§1) After approximately 14 days (2 days after subplating into plates, DIV 14) astrocytes had formed a confluent monolayer. […] Phase contrast microscopy was then carried out in order to assess the morphology of cells after the various treatments. Length of astrocyte processes was quantified by measuring all processes in 2-3 phase contrast images/group by an independent observer, blinded to the treatment groups using Image J v1.34s (National Institutes of Health, Bethesda, Md.).
Total RNA was isolated from astrocyte cultures using the Qiagen RNeasy mini-kit (Qiagen Inc., Valencia, Calif.) according to the manufacturer's protocol for isolation of total RNA from animal cells. Reverse transcription (RT) was carried out using the high-capacity cDNA archive kit (Applied Biosystems, Foster City, Calif.) according to the vendor's protocol. Real-time RT-PCR reactions were carried out in a total reaction volume of 25 μL containing a final concentration of 1.5 U Platinum Taq DNA polymerase (Invitrogen Corporation, Carlsbad, Calif.); 20 mM Tris HCl (pH 8.4); 50 mM KCl; 3 mM MgCl2; 200 μM dGTP, dCTP, and dATP; 400 μM dUTP and 1 U of UDG (uracyl DNA glycosylase); 900 nM of forward and reverse primers; 300 nM Taqman probe; and 5 μL of cDNA (50 ng) from the RT step. The iCycler™ Multicolor Real-Time PCR detection system (Bio-Rad Laboratories, Hercules, Calif.) was used to quantify PCR product. The fluorescence and threshold values (CT) obtained were used to compare the relative amount of target mRNA in experimental groups to those of controls using the 2^−ΔΔC^T method (Livak, K. J. and T. D. Schmittgen. 2001. Methods 25:402-408). Each experiment was run twice and samples were run in duplicate. For each sample, the mean CT value for the control gene (GAPDH) was then subtracted from the mean CT value for the gene of interest (GLT-1, GLAST) to obtain a ΔCT value. […] The relative fold change from control was then expressed by calculation of 2^−ΔΔC^T for each sample and the results are expressed as the group mean fold change±SEM.

[2] = system: GLT-1; assay: Western blot of cultured astrocytes, GLT-1 protein; type: cell-based, rat
Procedure: as §1
(§2) Cells were scraped into PBS containing a protease inhibitor cocktail (1:1000, Sigma Chemical Co., St. Louis, Mo.) and then lysed by sonication in 5 one-second pulses. The samples were stored at −80° C. until use. Total protein was determined using the Lowry method (DC assay, Bio-Rad, Hercules, Calif.). Forty micrograms of protein (diluted in sample buffer and boiled) and standard protein markers were subjected to SDS/7.5% polyacrylamide gel electrophoresis and transferred to polyvinylidene difluoride (PVDF) membranes. Nonspecific binding was blocked by incubation with 5% milk/PBS-Tween at room temperature for 1 hour followed by incubation overnight at 4° C. with rabbit anti-GLT-1 (1:500) or guinea pig anti-GLAST (1:2500). The following day, blots were washed and incubated for 1 hour at room temperature with goat anti-rabbit HRP-conjugated secondary (1:3000) or goat anti-guinea pig HRP-conjugated secondary antibody (1:5000) and visualized with enhanced chemiluminescence (ECL). Images were obtained using the Typhoon Imaging System (Amersham-GE Healthcare, Piscataway, N.J.). Finally, blots were incubated for 15 minutes in stripping buffer and reprobed with a monoclonal mouse anti-β-actin antibody (1:10,000) as a loading control. Densitometric analysis was performed using ImageQuant 5.2 (Molecular Dynamics, GE Healthcare, Piscataway, N.J.).

[3] = system: GLAST; assay: Western blot of cultured astrocytes, GLAST protein; type: cell-based, rat
Procedure: as §1, §2

[4] = system: cyclic-adenosine-5′,3′-monophosphate (cAMP)-specific phosphodiesterase (PDE IV); conditions: literature; cited from earlier work
[5] = 3 or 7 days, normalized to β-actin

For CCCn1cnc2c1c(=O)n(CCCCC(C)=O)c(=O)n2C [propentofylline], the “increase in GLAST mRNA” value ([1]; both days 3 and 7) was 1.5-2 fold, the “GLAST mRNA level, in words” value ([1]; propentofylline 10, 100, 1000 μM, db-cAMP 250 μM, relative to GAPDH) was “enhancement of GLT-1 and GLAST mRNA levels in a dose-dependent manner; also recorded: dose-dependently induced GLT-1 and GLAST at the mRNA level” and the “GLT-1 protein level, in words” value [2, 5] was “dose-dependently increased levels of GLT-1 protein”. The “increase in GLT-1 protein levels” value ([2]; 7 days, high dose) was 100 fold, the “increase in GLT-1 protein levels” value ([2]; after 3 days of treatment) was “about 10 fold” and the “GLAST protein level, in words” value [3, 5] was “dose-dependently increased levels of GLAST protein”. For the same molecule, the “increase in GLAST protein” value ([3]; 7-day treatment, 1000 μM) was 6 fold and the “PDE IV” value [4] was “inhibit”.
